The values that follow come from patent US8735593B2, “Aminopyridines useful as inhibitors of protein kinases” (Vertex Pharmaceuticals Incorporated, priority 2007, dated 2014).

Read-outs that look alike come from different tables or passages of the source. Bounds are passed on as bounds.

One assay has as its target GSK-3β (AA 1-420) (Homo sapiens (Human), UniProt P49841). In words: GSK-3 Inhibition Assay (standard coupled enzyme system). It counts as biochemical. To be noted: 20 μM ATP, 300 μM peptide, 20 nM GSK-3β, 30° C. As to the method: Compounds of the present invention were screened for their ability to inhibit GSK-3β (AA 1-420) activity using a standard coupled enzyme system (Fox et al., Protein Sci. 1998, 7, 2249). Reactions were carried out in a solution containing 100 mM HEPES (pH 7.5), 10 mM MgCl2, 25 mM NaCl, 300 μM NADH, 1 mM DTT and 1.5% DMSO. Final substrate concentrations in the assay were 20 μM ATP (Sigma Chemicals, St Louis, Mo.) and 300 μM peptide (American Peptide, Sunnyvale, Calif.). Reactions were carried out at 30° C. and 20 nM GSK-3β. Final concentrations of the components of the coupled enzyme system were 2.5 mM phosphoenolpyruvate, 300 μM NADH, 30 μg/ml pyruvate kinase and 10 μg/ml lactate dehydrogenase.
An assay stock buffer solution was prepared containing all of the reagents listed above with the exception of ATP and the test compound of the present invention. The assay stock buffer solution (175 μl) was incubated in a 96 well plate with 5 μl of the test compound of the present invention at final concentrations spanning 0.002 μM to 30 μM at 30° C. for 10 min. Typically, a 12-point titration was conducted by preparing serial dilutions (from 10 mM compound stocks) with DMSO of the test compounds of the present invention in daughter plates. The reaction was initiated by the addition of 20 μl of ATP (final concentration 20 μM). Rates of reaction were obtained using a Molecular Devices Spectramax plate reader (Sunnyvale, Calif.) over 10 min at 30° C. The Ki values were determined from the rate data as a function of inhibitor concentration.

The next assay has as its target GSK3α TYR 279 (Homo sapiens (Human), UniProt P49840). In words: GSK-3α p-TYR inhibition assay, western blotting of Jurkat cells. The class given is cell-based. As to conditions: compound incubated o/n, read-out: GSK3a pTYR 279: IC50. As to the method:
(§1) Compounds are screened for their ability to inhibit the phosphorylation of tyrosine (TYR) residues through the use of western blotting of Jurkat cells dosed with the compounds. The phosphorylation of the specific TYR residues tested are GSK3α TYR 279 and GSK3β TYR 216.
(§2) Jurkat cells are seeded at a density of 2×10^5 cells/well in a 12 well dish in starvation media (RPMI+1% FBS+P/S). Following starvation for 16 hours, the compound is dosed into each well at a final DMSO concentration of 0.3% and cells are incubated o/n at 37° C. 5% CO2. The next day, cells are spun down at 1500 rpm, washed with PBS, and lysed in 100 uL Laemli sample buffer with β-mercaptoethanol.
(§3) 15 microliters (uL) of cell lysates are loaded onto a 10% tris-glycine gel and run at 120 v for 2 hours or until dye front runs off of the gel. The protein is then transferred onto a PVDF membrane at 100 v for 60 min. PBST (PBS containing 0.1% Tween 20, such as 1 ml Tween per 1 L of PBS) is then made up and used for all washes and antibody incubations. The blot is blocked in 5% nonfat milk PBST for one hour.
(§4) The primary antibody (GSK-3α/β pTYR 279/216 at 1:1000 dilution Upstate cat#05-413) is then added in 5%-nonfat milk PBST overnight at 4° C. with gentle rocking. The blot is then washed in PBST for 5 min. This is then repeated 4 times. A secondary anti-mouse-HRP conjugated antibody (1:5000 dilution) is added for 60 min in 5% milk PBST. The blot is then washed in PBST for 5 min. This is also repeated 4 times. 3.0 mL of the developing solution (ECL plus Western Blotting Detection System from Amersham/GE cat# RPN2132) is made and then added. The solution is swirled over the blot for ˜30 sec. The blot is then developed using CL-Xposure clear blue X-ray film. GAPDH expression level is used as a loading control, (GAPDH antibody: santa cruz 25-778) at 1:10000 dilution.
(§5) For determination of GSK-3α and GSK-3β pTYR IC50, the density of the respective bands for each protein at specific compound concentration is compared to a no compound DMSO treated control cell sample present on each exposure. IC50 numbers are defined as the concentration of compound in which the density of the GSK-3α or GSK-3β band is 50% of the no compound control.

For another assay, the target named is GSK3β TYR 216 (Homo sapiens (Human), UniProt P49841). The assay is described as follows: GSK3β p-TYR inhibition assay, western blotting of Jurkat cells. As to conditions: compound incubated o/n, read-out: GSK3b pTYR 216: IC50. It counts as cell-based. As to the method:
as §1, §2, §3, §4, §5

The subject of assay [1] is β-catenin dependent TCF/LEF transcriptional activity. The assay is described as follows: β-Catenin stabilization protocol, β-lactamase reporter assay in Jurkat cells. As to conditions: Homo sapiens, 460/530 ratio 50% of the maximum effect, read-out: Beta Catenin IC50. The class given is cell-based. An excerpt: GSK-3 phosphorylation of β-catenin targets it to the proteosome for degradation. Inhibition of GSK-3 results in accumulation of β-catenin in the cytosol of cells which through interaction with the transcription factor TCF/LEF translocates to the nucleus and drives the transcription of Wnt-dependent genes. The assay is designed to determine the level of β-catenin dependent TCF/LEF transcriptional activity in a quantitative manner through the use of a β-lactamase reporter assay in Jurkat cells dosed with a compound.
Jurkat β-catenin cells are starved overnight in assay media (1% FBS, 1× Penstrep, RPMI) in the flask. The next day Jurkat β-catenin cells are seeded in 96 well flat bottom plates at a density of 50,000 cells/well in assay media in a volume of 100 ul. The compound is added to the well at a final DMSO concentration of 0.75% and incubated at 37° C. o/n. The next day, 20 uL of 6×CCF4 dye is added to the wells and incubated at room temperature for 1-2 hours. Plates are read on the Cytofluor 4000 series multiwell plate reader and the 460/530 ratio is determined. The GSK-3 IC50 for induction of β-catenin is determined by plotting the 460/530 ratio against the concentration of compound (Log scale) and using the equation of the slope to calculate the point at which the ratio is 50% of the maximum effect.

The test system of assay [2] is rat brains after transient middle cerebral artery occlusion (MCAO). As to conditions: cited from earlier work.
Assay [3] concerns amyloid-β peptide tissue levels. As to conditions: mice over-expressing APP, treated over a three-week period; cited from earlier work.
Setting [4] is: read-out: Ki value, inhibition of GSK-3.
Setting [5] is: read-out: Ki value, inhibition of GSK-3 (upper bound).

GSK-3β (AA 1-420), sequence (P49841 whole entry, species assumed, the tested form may be a part): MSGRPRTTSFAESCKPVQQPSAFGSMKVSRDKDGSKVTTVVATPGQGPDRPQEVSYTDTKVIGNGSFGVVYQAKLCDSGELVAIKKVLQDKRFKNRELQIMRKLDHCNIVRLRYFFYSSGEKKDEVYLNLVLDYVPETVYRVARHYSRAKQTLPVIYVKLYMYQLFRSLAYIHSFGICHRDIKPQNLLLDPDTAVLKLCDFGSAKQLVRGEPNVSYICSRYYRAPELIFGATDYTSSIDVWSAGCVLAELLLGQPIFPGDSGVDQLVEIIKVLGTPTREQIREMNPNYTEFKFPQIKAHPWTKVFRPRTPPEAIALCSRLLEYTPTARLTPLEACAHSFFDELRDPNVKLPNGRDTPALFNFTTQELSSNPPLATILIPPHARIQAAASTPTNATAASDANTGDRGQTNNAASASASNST
GSK3β TYR 216, sequence (P49841 whole entry): as the sequence (P49841 whole entry, species assumed, the tested form may be a part) above
GSK3α TYR 279, sequence (P49840 whole entry): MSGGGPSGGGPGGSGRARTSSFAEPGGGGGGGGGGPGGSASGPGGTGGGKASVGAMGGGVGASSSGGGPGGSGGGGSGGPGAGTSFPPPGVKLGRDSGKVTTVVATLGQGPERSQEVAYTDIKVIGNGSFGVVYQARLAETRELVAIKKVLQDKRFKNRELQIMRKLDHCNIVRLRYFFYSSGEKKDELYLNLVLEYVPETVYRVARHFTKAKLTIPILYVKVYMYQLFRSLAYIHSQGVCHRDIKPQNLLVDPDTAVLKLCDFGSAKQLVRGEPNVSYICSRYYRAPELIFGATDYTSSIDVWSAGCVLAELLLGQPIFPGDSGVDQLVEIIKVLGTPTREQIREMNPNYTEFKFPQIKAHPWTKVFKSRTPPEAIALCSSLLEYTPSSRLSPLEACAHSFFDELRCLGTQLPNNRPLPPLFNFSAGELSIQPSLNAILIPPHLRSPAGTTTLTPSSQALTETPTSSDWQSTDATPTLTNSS

Turning to `Cc1cc(Nc2n[nH]c3ncc(F)cc23)nc(-c2ccccc2)c1C` [Compound I-5], the Ki on GSK-3β (AA 1-420) (setting [4]) was at most 10 nM. Besides, the IC50 was determined as 0.6 nM at GSK3α TYR 279, 20 nM at GSK3β TYR 216 and 1100 nM in assay [1].

For `Cc1cc(-c2ccccc2Cl)nc(Nc2n[nH]c3ncc(F)cc23)c1C` [Compound I-4], the values for the Ki on GSK-3β (AA 1-420) (setting [4]) and on GSK-3β (AA 1-420) (setting [5]) were over 10 nM and at most 1000 nM, respectively. Further, the IC50 stood at 30 nM at GSK3α TYR 279 and 300 nM at GSK3β TYR 216.

Take “IGF-1: insulin growth factor-1, a known GSK-3 inhibitor”: the infarct size result in assay [2] was “reduced infarct size”.

With `Cc1cc(Nc2ncc(C)s2)nc(-c2ccccc2Cl)c1` [Compound I-6], the figures for the Ki at GSK-3β (AA 1-420) (setting [4]) and on GSK-3β (AA 1-420) (setting [5]) were over 10 nM and at most 1000 nM, respectively. Besides, the IC50 in assay [1] turned out to be 1300 nM.

Take `Fc1cnc2[nH]nc(Nc3cc(C(F)(F)F)cc(-c4ccccc4Cl)n3)c2c1` [Compound I-1, N-(6-(2-chlorophenyl)-4-(trifluoromethyl)pyridin-2-yl)-5-fluoro-1H-pyrazolo[3,4-b]pyridin-3-amine]: the inhibition constant (Ki) is over 10 nM on GSK-3β (AA 1-420) (setting [4]) and at most 1000 nM at GSK-3β (AA 1-420) (setting [5]). Besides, the IC50 on GSK3α TYR 279 amounted to 3 nM; at GSK3β TYR 216, 50 nM; in assay [1], 2080 nM.

As for `[Li]` [lithium], the “decrease in amyloid-β peptide tissue levels” value in assay [3] is given as over 50%.

In the case of `Cc1cc(Nc2n[nH]c3ncc(F)cc23)nc(-c2ccccc2Cl)c1C` [Compound I-2], the Ki at GSK-3β (AA 1-420) (setting [4]) is at most 10 nM. In addition, the IC50 at GSK3α TYR 279 is 10 nM; on GSK3β TYR 216 it was 200 nM; in assay [1], over 10000 nM.

`Cc1cc(Nc2n[nH]c3ncc(F)cc23)nc(-c2ccccc2Cl)c1` [Compound I-3]: the Ki at GSK-3β (AA 1-420) (setting [4]) is at most 10 nM. The IC50 came to 2 nM on GSK3α TYR 279, 30 nM at GSK3β TYR 216 and 2700 nM in assay [1].
